Reference: PubChem BioAssay (NCI)
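96-well plates; 48 h exposure; 5 concentrations. Endpoints by linear interpolation between flanking doses. Not reached: highest tested concentration assigned. At the TGI there is no net growth.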

Key:
Assay in all cases: NCI anticancer screen, dose series, 48 h
[1] = test system: HOP-92 NSCLC
[2] = test system: M14 melanoma
[3] = test system: SF-295 CNS
[4] = test system: COLO 205 colon
[5] = test system: HL-60(TB) leukemia
[6] = test system: HS 578T breast
[7] = test system: SR leukemia
[8] = test system: RPMI-8226 leukemia
[9] = test system: DU-145 prostate
[10] = test system: SK-MEL-5 melanoma

COc1ccccc1NCC(=O)Nn1c(C)nc2ccc(S(=O)(=O)Nc3ccccc3OC)cc2c1=O
TGI [1]: > 100 µM
TGI [2]: > 100 µM
TGI [3]: > 100 µM
TGI [4]: > 100 µM
TGI [5]: > 100 µM
TGI [6]: > 100 µM
TGI [7]: > 100 µM
TGI [8]: > 100 µM
TGI [9]: > 100 µM

CN1C(=O)N(C)C2(CCN(CCCCCCF)CC2)C1=O
TGI [2]: > 100 µM
TGI [3]: > 100 µM
TGI [4]: > 100 µM
TGI [5]: > 100 µM
TGI [7]: > 100 µM
TGI [10]: > 100 µM
TGI [8]: > 100 µM
TGI [9]: > 100 µM

Cc1nc2c(=O)[nH]c3ccc(Cl)cc3c2o1
TGI [1]: > 100 µM
TGI [2]: > 100 µM
TGI [3]: > 100 µM
TGI [4]: > 100 µM
TGI [6]: > 100 µM
TGI [7]: > 100 µM
TGI [10]: > 100 µM
TGI [8]: > 100 µM

COc1ccccc1NS(=O)(=O)c1ccc2ncn(NS(=O)(=O)c3ccc(Cl)cc3)c(=O)c2c1
TGI [1]: > 100 µM
TGI [2]: > 100 µM
TGI [3]: > 100 µM
TGI [4]: > 100 µM
TGI [5]: > 100 µM
TGI [6]: > 100 µM
TGI [7]: > 100 µM
TGI [8]: > 100 µM
TGI [9]: > 100 µM

C#CCCCC(=O)N(C(=O)CS(=O)CC)c1ccccc1 (configuration not stated)
TGI [1]: > 100 µM
TGI [2]: > 100 µM
TGI [3]: > 100 µM
TGI [4]: > 100 µM
TGI [5]: > 100 µM
TGI [6]: > 100 µM
TGI [7]: > 100 µM
TGI [10]: > 100 µM
TGI [9]: > 100 µM

Cc1cc(C)c(N=Nc2c(O)c(S(=O)(=O)O)cc3cc(S(=O)(=O)O)ccc23)cc1C
TGI [1]: > 100 µM
TGI [2]: > 100 µM
TGI [3]: > 100 µM
TGI [4]: > 100 µM
TGI [6]: > 100 µM
TGI [10]: > 100 µM
TGI [8]: > 100 µM
TGI [9]: > 100 µM

O=C1C[C@H](c2ccc(O)c(O)c2)Oc2cc(O)cc(O)c21
TGI [1]: > 100 µM
TGI [2]: > 100 µM
TGI [3]: > 100 µM
TGI [4]: > 100 µM
TGI [5]: > 100 µM
TGI [7]: > 100 µM
TGI [10]: > 100 µM
TGI [8]: > 100 µM

CC1=CC(=O)/C(=C/n2c(=S)[nH]c3ccccc32)C(=O)O1
TGI [1]: > 100 µM
TGI [2]: > 100 µM
TGI [3]: > 100 µM
TGI [4]: > 100 µM
TGI [5]: > 100 µM
TGI [6]: > 100 µM
TGI [8]: > 100 µM
TGI [9]: > 100 µM

CC1(C)C2CCC(N)(C2)C1O (configuration not stated)
TGI [1]: > 100 µM
TGI [2]: > 100 µM
TGI [3]: > 100 µM
TGI [4]: > 100 µM
TGI [7]: > 100 µM
TGI [10]: > 100 µM
TGI [8]: > 100 µM
TGI [9]: > 100 µM

O=C(NN=C1CCCCC1)NN=C1CCCCC1
TGI [2]: > 100 µM
TGI [3]: > 100 µM
TGI [4]: > 100 µM
TGI [6]: > 100 µM
TGI [10]: > 100 µM
TGI [9]: > 100 µM

Cc1sc2nc3n(c(=O)c2c1C)N=C(c1ccc([N+](=O)[O-])cc1)CS3
TGI [1]: > 100 µM
TGI [3]: > 100 µM
TGI [4]: > 100 µM
TGI [5]: > 100 µM
TGI [6]: > 100 µM
TGI [7]: > 100 µM
TGI [10]: > 100 µM
TGI [8]: > 100 µM
TGI [9]: > 100 µM

CC(C)N(C(C)C)P(OCCC#N)OC1CC(n2cnc3c(=O)[nH]cnc32)OC1COC(=O)NCCCCCCNC(=O)OC(C)(C)c1ccc(-c2ccccc2)cc1 (configuration not stated)
TGI [1]: 75.7 µM
TGI [2]: 34.6 µM
TGI [3]: > 100 µM
TGI [4]: 31.2 µM
TGI [5]: 36.4 µM
TGI [10]: 40.9 µM
TGI [8]: 76.1 µM

COc1cc2c(c(OC)c1OC)-c1ccc(SC)cc1C(=O)CC2
TGI [1]: > 100 µM
TGI [2]: > 100 µM
TGI [3]: > 100 µM
TGI [5]: 10.8 µM
TGI [6]: > 100 µM
TGI [7]: > 100 µM
TGI [10]: > 100 µM
TGI [8]: > 47.7 µM

O=[N+]([O-])c1cc(Cl)ccc1S(=O)(=O)N1CCCc2cc(Cl)ccc21
TGI [1]: > 100 µM
TGI [2]: > 100 µM
TGI [3]: > 100 µM
TGI [4]: > 100 µM
TGI [6]: > 100 µM
TGI [10]: > 100 µM
TGI [8]: > 100 µM
TGI [9]: > 100 µM

COc1cccc(-c2cc(=O)c3cc(Cl)cnc3[nH]2)c1
TGI [1]: 63.9 µM
TGI [2]: > 9.71 µM
TGI [3]: 13 µM
TGI [4]: 7.59 µM
TGI [6]: 47.6 µM
TGI [7]: 20.4 µM
TGI [10]: 7.33 µM
TGI [8]: > 62.1 µM
TGI [9]: > 36.4 µM

C/C=C1\CC(C(=O)OCC)CCCCCCCCCCC1=O (configuration not stated)
TGI [2]: > 100 µM
TGI [3]: > 100 µM
TGI [4]: > 100 µM
TGI [5]: > 100 µM
TGI [6]: > 100 µM
TGI [10]: > 100 µM
TGI [9]: > 100 µM

OC1c2ccccc2C(O)C2OC12 (configuration not stated)
TGI [1]: > 100 µM
TGI [2]: > 100 µM
TGI [3]: > 100 µM
TGI [4]: > 100 µM
TGI [5]: > 100 µM
TGI [7]: > 100 µM
TGI [10]: > 100 µM
TGI [8]: > 100 µM
TGI [9]: > 100 µM

COc1ccc2c(c1)-c1[nH]c3ccccc3c1CC2
TGI [1]: 31.8 µM
TGI [2]: 31.5 µM
TGI [3]: 27.3 µM
TGI [4]: 32.3 µM
TGI [6]: 30.6 µM
TGI [10]: 28.2 µM
TGI [8]: 71.2 µM
TGI [9]: 33.5 µM

CN1B(c2ccccc2)N(C)C(=O)N(C)C1=O
TGI [1]: > 100 µM
TGI [2]: > 100 µM
TGI [3]: > 100 µM
TGI [4]: > 100 µM
TGI [5]: > 100 µM
TGI [6]: > 100 µM
TGI [10]: > 100 µM
TGI [8]: > 100 µM
TGI [9]: > 100 µM

C=CCC(SC)C1=C(C)C(=O)c2ccccc21 (configuration not stated)
TGI [1]: > 10 µM
TGI [2]: > 10 µM
TGI [3]: > 10 µM
TGI [7]: > 10 µM
TGI [10]: > 10 µM
TGI [8]: > 10 µM
TGI [9]: > 10 µM

O=C(O)CC(O)(C(=O)O)C(O)C(=O)O (configuration not stated)
TGI [2]: > 1000 µM
TGI [3]: > 1000 µM
TGI [4]: > 1000 µM
TGI [5]: > 1000 µM
TGI [6]: 867 µM
TGI [10]: > 1000 µM
TGI [8]: > 1000 µM
TGI [9]: > 1000 µM

Brc1cccc[n+]1-c1ccc2cc(-[n+]3ccccc3Br)ccc2c1
TGI [2]: > 100 µM
TGI [3]: > 100 µM
TGI [4]: > 100 µM
TGI [5]: > 100 µM
TGI [6]: > 100 µM
TGI [10]: > 100 µM
TGI [8]: 63.8 µM
TGI [9]: 35.5 µM

CC1CC[C@@]2(OC1)OC1C[C@H]3[C@@H]4CCC5CC(O)CC[C@]5(C)[C@H]4C/C(=N\N(C)C)[C@]3(C)C1[C@@H]2C (some centres not stated)
TGI [1]: > 100 µM
TGI [2]: > 100 µM
TGI [4]: 45 µM
TGI [5]: 70.5 µM
TGI [6]: 97.7 µM
TGI [7]: 60.6 µM
TGI [10]: 53.3 µM
TGI [8]: > 100 µM
TGI [9]: 60.1 µM

COC[C@@H](Cc1ccc(OC)c(OC)c1)[C@@H](COC)Cc1ccc(OC)c(OC)c1
TGI [1]: > 100 µM
TGI [2]: > 100 µM
TGI [3]: > 100 µM
TGI [4]: > 100 µM
TGI [5]: > 100 µM
TGI [7]: > 100 µM
TGI [10]: > 100 µM

Cc1cc(O)c(C(C)C)cc1N=Cc1ccccc1O
TGI [1]: 1.82 µM
TGI [2]: 31.4 µM
TGI [3]: 26.6 µM
TGI [4]: 42.3 µM
TGI [5]: 1.89 µM
TGI [6]: > 46.4 µM
TGI [10]: 18.8 µM
TGI [9]: 17.4 µM
